Tests used:
DGKa = DGKa (Homo sapiens (Human), UniProt P23743); test: DGK ADP-Glo Kinase Assay (DGKa); format: biochemical; conditions: 10 nM DGKa, 15 uM ATP
Method: (§1) Luminescence was recorded using an Tecan SPARK microplate reader.

DGKz = DGKz (Homo sapiens (Human), UniProt Q13574); test: DGK ADP-Glo Kinase Assay (DGKz); format: biochemical; conditions: 5 nM DGKz, 15 uM ATP
Method: as §1

Sequence of DGKa (P23743 whole entry): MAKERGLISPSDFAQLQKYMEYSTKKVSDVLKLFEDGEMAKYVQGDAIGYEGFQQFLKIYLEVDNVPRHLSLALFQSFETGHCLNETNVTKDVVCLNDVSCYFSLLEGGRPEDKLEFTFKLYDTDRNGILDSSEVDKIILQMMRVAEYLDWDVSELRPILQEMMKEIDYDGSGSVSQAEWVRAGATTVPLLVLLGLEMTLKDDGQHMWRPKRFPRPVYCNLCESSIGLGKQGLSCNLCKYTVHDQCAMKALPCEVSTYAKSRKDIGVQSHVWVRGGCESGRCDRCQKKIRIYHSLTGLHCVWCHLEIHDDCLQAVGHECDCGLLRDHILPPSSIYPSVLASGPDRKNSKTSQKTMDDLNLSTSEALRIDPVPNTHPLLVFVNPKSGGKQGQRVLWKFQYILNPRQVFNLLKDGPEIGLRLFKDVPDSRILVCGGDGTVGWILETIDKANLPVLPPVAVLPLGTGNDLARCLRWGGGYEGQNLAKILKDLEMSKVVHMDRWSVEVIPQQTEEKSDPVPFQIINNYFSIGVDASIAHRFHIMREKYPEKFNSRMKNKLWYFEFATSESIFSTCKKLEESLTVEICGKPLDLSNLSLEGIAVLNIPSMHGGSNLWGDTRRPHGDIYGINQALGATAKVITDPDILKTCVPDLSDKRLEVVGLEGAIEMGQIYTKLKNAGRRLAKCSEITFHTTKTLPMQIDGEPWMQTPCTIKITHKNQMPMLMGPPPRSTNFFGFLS
Sequence of DGKz (Q13574 whole entry): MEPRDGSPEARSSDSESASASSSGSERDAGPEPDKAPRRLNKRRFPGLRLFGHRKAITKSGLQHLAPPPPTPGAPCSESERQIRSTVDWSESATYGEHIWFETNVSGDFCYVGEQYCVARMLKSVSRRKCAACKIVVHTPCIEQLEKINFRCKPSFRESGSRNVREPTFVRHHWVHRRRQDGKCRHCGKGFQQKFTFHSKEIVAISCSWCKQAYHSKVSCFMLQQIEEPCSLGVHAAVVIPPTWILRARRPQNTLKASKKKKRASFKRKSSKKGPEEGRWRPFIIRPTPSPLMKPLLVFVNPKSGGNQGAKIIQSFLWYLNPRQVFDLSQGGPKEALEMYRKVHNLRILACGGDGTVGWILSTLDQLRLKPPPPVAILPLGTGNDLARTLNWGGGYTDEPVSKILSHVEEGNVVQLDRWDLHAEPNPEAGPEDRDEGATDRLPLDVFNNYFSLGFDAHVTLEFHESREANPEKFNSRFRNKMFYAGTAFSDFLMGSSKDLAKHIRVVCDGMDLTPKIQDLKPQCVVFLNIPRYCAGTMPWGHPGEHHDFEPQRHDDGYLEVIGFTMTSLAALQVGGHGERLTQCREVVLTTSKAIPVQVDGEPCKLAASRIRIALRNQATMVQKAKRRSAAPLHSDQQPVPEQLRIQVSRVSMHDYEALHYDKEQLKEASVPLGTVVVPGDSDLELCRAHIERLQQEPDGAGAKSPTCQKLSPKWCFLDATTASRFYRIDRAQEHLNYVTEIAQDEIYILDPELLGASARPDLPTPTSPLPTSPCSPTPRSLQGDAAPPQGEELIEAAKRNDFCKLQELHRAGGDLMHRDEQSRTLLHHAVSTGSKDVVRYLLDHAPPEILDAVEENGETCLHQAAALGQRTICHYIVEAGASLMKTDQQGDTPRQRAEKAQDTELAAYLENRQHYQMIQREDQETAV

IC50 (DGKa)	IC50 (DGKz)	SMILES
< 100 nM	> 1000 nM	CCC(c1ccc(C(F)(F)F)cc1)N1CCN(c2nc3nncn3c3ccc(C#N)nc23)C(CC)C1 (stereo not shown) [Compound 102]
< 100 nM	< 100 nM	CC[C@@H]1CN(c2nc3nncn3c3ccc(C#N)nc23)[C@@H](C)CN1[C@@H](CC)c1ccc(SC(F)(F)F)cc1 (stereo in doubt) [Compound 66]
< 100 nM	100 to 1000 nM	CC[C@H]1CN([C@@H](CC)c2ccc(SC(F)(F)F)cc2)[C@H](CC)CN1c1nc2nncn2c2ccc(C#N)nc12 (single isomer, unassigned) [Compound 69]
< 100 nM	< 100 nM	CC[C@@H]1CN(c2nc3nncn3c3ccc(C#N)nc23)[C@@H](C)CN1[C@@H](CC)c1ccc(C(F)(F)F)cc1 (single isomer, unassigned) [Compound 81]
< 100 nM	100 to 1000 nM	CC[C@H]1CN([C@H](CC)c2ccc(C(F)(F)F)nc2)[C@H](CC)CN1c1nc2nncn2c2ccc(C#N)nc12 (stereo in doubt) [Compound 112]
< 100 nM	< 100 nM	CC[C@H]1CN([C@@H]2CCCCc3cc(C(F)(F)F)ccc32)[C@H](CC)CN1c1nc2nncn2c2ccc(C#N)nc12 [Compound 114]
< 100 nM	100 to 1000 nM	CC[C@@H]1CN(c2nc3nncn3c3ccc(C#N)nc23)[C@@H](C)CN1[C@H](CC)c1ccc(C(F)(F)F)cc1 (stereo in doubt) [Compound 82]
< 100 nM	< 100 nM	CC[C@H]1CN([C@@H](CC)c2ccc(C(F)(F)F)cc2)[C@H](CC)CN1c1nc2nncn2c2ccc(C#N)nc12 (single isomer, unassigned) [Compound 34]
< 100 nM	100 to 1000 nM	CC[C@H]1CN([C@H](CC)c2cccc(C(F)(F)F)c2)[C@H](CC)CN1c1nc2nncn2c2ccc(C#N)nc12 (stereo in doubt) [Compound 106]
< 100 nM	< 100 nM	CC[C@H]1CN([C@@H](CC)c2ccc(S(F)(F)(F)(F)F)cc2)[C@H](CC)CN1c1nc(=O)n(C)c2ccc(C#N)nc12 [Compound 28]
< 100 nM	100 to 1000 nM	CC[C@H]1CN([C@H](CC)c2ccc(OC)cc2F)[C@H](CC)CN1c1nc2nncn2c2ccc(C#N)nc12 (stereo in doubt) [Compound 116]
< 100 nM	< 100 nM	CC[C@H]1CN(C(COC)c2ccc(S(F)(F)(F)(F)F)cc2)[C@H](CC)CN1c1nc(=O)n(C)c2ccc(C#N)nc12 (stereo partly shown) [Compound 78]
< 100 nM	< 100 nM	CC[C@H]1CN(C(C)c2ccc(SC(F)(F)F)cc2)[C@H](CC)CN1c1nc2nncn2c2ccc(C#N)nc12 (stereo partly shown) [Compound 51]
< 100 nM	100 to 1000 nM	CC[C@H]1CN([C@H](C)c2ccc(S(F)(F)(F)(F)F)cc2)[C@H](CC)CN1c1nc2nncn2c2ccc(C#N)nc12 (stereo in doubt) [Compound 89]
< 100 nM	< 100 nM	CC[C@H]1CN([C@@H](CC)c2ccc(OC(F)(F)F)cc2)[C@H](CC)CN1c1nc2nncn2c2ccc(C#N)nc12 (single isomer, unassigned) [Compound 100]
< 100 nM	< 100 nM	CC[C@H]1CN([C@@H](C)c2ccc(S(F)(F)(F)(F)F)cc2)[C@H](CC)CN1c1nc2nncn2c2ccc(C#N)nc12 (stereo in doubt) [Compound 88]
< 100 nM	< 100 nM	CC[C@H]1CN([C@H](CC)c2ccc(S(F)(F)(F)(F)F)cc2)[C@H](CC)CN1c1nc(=O)n(C)c2ccc(C#N)nc12 [Compound 29]
< 100 nM	100 to 1000 nM	CC[C@@H]1CN(c2nc3nncn3c3ccc(C#N)nc23)[C@@H](C)CN1[C@H](CC)c1ccc(SC(F)(F)F)cc1 (stereo in doubt) [Compound 71]
< 100 nM	100 to 1000 nM	CC[C@H]1CN([C@H](CC)c2ccc(OC(F)(F)F)cc2)[C@H](CC)CN1c1nc2nncn2c2ccc(C#N)nc12 (stereo in doubt) [Compound 101]
< 100 nM	< 100 nM	CC[C@H]1CN([C@H](CC)c2cccc(S(F)(F)(F)(F)F)c2)[C@H](CC)CN1c1nc(=O)n(C)c2ccc(C#N)nc12 (stereo in doubt) [Compound 55]
< 100 nM	100 to 1000 nM	CC[C@H]1CN([C@H]2CCCCc3cc(C(F)(F)F)ccc32)[C@H](CC)CN1c1nc2nncn2c2ccc(C#N)nc12 [Compound 113]
100 to 1000 nM	100 to 1000 nM	CC[C@H]1CN([C@H](CC)c2cccc(S(F)(F)(F)(F)F)c2)[C@H](CC)CN1c1nc(=O)n(C)c2ccc(C#N)nc12 (stereo in doubt) [Compound 56]
< 100 nM	100 to 1000 nM	CC[C@H]1CN([C@@H](C)c2ccc(S(F)(F)(F)(F)F)cc2)[C@H](CC)CN1c1nc(=O)n(C)c2ccc(C#N)nc12 (stereo in doubt) [Compound 62]
< 100 nM	100 to 1000 nM	CC[C@H]1CN([C@H](CC)c2ccc(C(F)(F)F)cc2)[C@H](CC)CN1c1nc2nncn2c2ccc(C#N)nc12 (single isomer, unassigned) [Compound 35]

Second part, the molecule before the results:

SMILES	IC50 (DGKa)	IC50 (DGKz)
Cn1c(=O)nc(N2CCC3(CC2)CC(c2ccc(OC(F)(F)F)cc2)=NO3)c2nc(C#N)ccc21 [Compound 31]	< 100 nM	< 100 nM
CC[C@H]1C[C@]2(CCN1c1nc(=O)n(C)c3ccc(C#N)nc13)CC(c1ccc(OC(F)(F)F)cc1)=NO2 (stereo in doubt) [Compound 74]	< 100 nM	> 1000 nM
N#Cc1ccc2c(n1)c(N1CCC3(CC1)CC(c1ccc(C(F)(F)F)cc1)=NO3)nc1nncn12 [Compound 53]	< 100 nM	100 to 1000 nM
CC[C@@H]1CN2c3c(c(=O)n(C)c4ccc(C#N)nc34)OC[C@@H]2CN1[C@@H](CC)c1ccc(SC(F)(F)F)cc1 [Compound 123]	< 100 nM	100 to 1000 nM
CC[C@H]1CN([C@H](c2ccc(SC(F)(F)F)cc2)c2nc(C3CC3)no2)[C@H](CC)CN1c1nc(=O)n(C)c2ccc(C#N)nc12 (stereo in doubt) [Compound 70]	< 100 nM	< 100 nM
CC[C@H]1CN(C(c2ccc(S(F)(F)(F)(F)F)cc2)c2nc(C3CC3)no2)[C@H](CC)CN1c1nc(=O)n(C)c2ccc(C#N)nc12 (stereo partly shown) [Compound 64]	< 100 nM	< 100 nM
CC[C@@H]1CN2c3c(c(=O)n(C)c4ccc(C#N)nc34)OC[C@@H]2CN1[C@H](CC)c1ccc(SC(F)(F)F)cc1 [Compound 124]	< 100 nM	100 to 1000 nM
Cc1ccccc1-n1cc(C2CCN(c3nc(=O)n(C)c4ccc(C#N)nc34)CC2)cn1 [Compound 12]	> 1000 nM	> 1000 nM
CC[C@H]1CN([C@@H](c2ccc(S(F)(F)(F)(F)F)cc2)c2nc(C3CC3)cs2)[C@H](CC)CN1c1nc(=O)n(C)c2ccc(C#N)nc12 [Compound 99]	< 100 nM	< 100 nM
Cc1ccc2oc(C3CCN(c4nc(=O)n(C)c5cc(O[C@@H]6CCOC6)c(Cl)cc45)CC3)nc2c1 [Compound 32]	< 100 nM	> 1000 nM
Cc1ccc2oc(C3CCN(c4nc(=O)n(C)c5ccc(C#N)nc45)CC3)nc2c1 [Compound 20]	> 1000 nM	> 1000 nM
Cc1ccc2oc(C3CCN(c4nc(=O)n(C)c5cc(O[C@H]6CCOC6)c(Cl)cc45)CC3)nc2c1 [Compound 33]	< 100 nM	< 100 nM
CC[C@H]1CN([C@H](CC)c2ccc(S(F)(F)(F)(F)F)cc2)[C@H](CC)CN1c1nc(=O)n2c3c(cc(C#N)nc13)OCC2 (stereo in doubt) [Compound 79]	100 to 1000 nM	100 to 1000 nM
CC[C@H]1CN([C@H](C)c2ccc(S(F)(F)(F)(F)F)cc2)[C@H](CC)CN1c1nc(=O)n(C)c2ccc(C#N)nc12 (stereo in doubt) [Compound 63]	< 100 nM	100 to 1000 nM
CC[C@H]1CN([C@H](c2ccc(S(F)(F)(F)(F)F)cc2)c2nc(C3CC3)cs2)[C@H](CC)CN1c1nc(=O)n(C)c2ccc(C#N)nc12 [Compound 98]	< 100 nM	< 100 nM
CC[C@@H]1CN2c3c(c(=O)n(C)c4ccc(C#N)nc34)OC[C@@H]2CN1[C@H](CC)c1ccc(C(F)(F)F)cc1 [Compound 122]	< 100 nM	< 100 nM
Cn1c(=O)nc(N2CCC3(CC2)CC(c2cccc(C(F)(F)F)c2)=NO3)c2nc(C#N)ccc21 [Compound 47]	< 100 nM	< 100 nM
CC[C@@H]1CN(c2nc(=O)n(C)c3ccc(C#N)nc23)[C@@H](C)CN1[C@H](c1ccc(F)cc1)c1ccc(SC(F)(F)F)cn1 [Compound 73]	< 100 nM	< 100 nM
CC[C@@H]1CN2c3c(c(=O)n(C)c4ccc(C#N)nc34)OC[C@H]2CN1[C@H](CC)c1ccc(S(F)(F)(F)(F)F)cc1 [Compound 108]	< 100 nM	100 to 1000 nM
N#Cc1ccc2c(n1)c(N1CCC3(CC1)CC(c1ccc(SC(F)(F)F)cc1)=NO3)nc1nncn12 [Compound 54]	< 100 nM	100 to 1000 nM
CC[C@H]1C[C@H](Oc2ccc(OC(F)(F)F)cc2)CCN1c1nc(=O)n(C)c2ccc(C#N)nc12 (stereo in doubt) [Compound 18]	< 100 nM	100 to 1000 nM
CC[C@@H]1CN(c2nc(=O)n(C)c3ccc(C#N)nc23)[C@@H](C)CN1C(c1ccc(S(F)(F)(F)(F)F)cc1)c1nc(C2CC2)no1 (stereo partly shown) [Compound 65]	< 100 nM	< 100 nM
CC[C@H]1CN([C@@H](CC)c2ccc(S(F)(F)(F)(F)F)cc2)[C@H](CC)CN1c1nc(=O)n2c3c(cc(C#N)nc13)OCC2 (stereo in doubt) [Compound 83]	< 100 nM	100 to 1000 nM
Cc1ccc2oc(C3CCN(c4nc(=O)n(C)c5ccc6nncn6c45)CC3)nc2c1 [Compound 22]	< 100 nM	> 1000 nM
Cn1c(=O)nc(N2CCC3(CC2)COC(c2ccc(OC(F)(F)F)cc2)=N3)c2nc(Cl)ccc21 [Compound 37]	< 100 nM	100 to 1000 nM
CC[C@@H]1CN(c2nc(=O)n(C)c3ccc(C#N)nc23)[C@@H](C)CN1[C@@H](c1ccc(F)cc1)c1ccc(SC(F)(F)F)cn1 [Compound 72]	< 100 nM	< 100 nM

Reference: US20250215014A1, “KINASE INHIBITORS, PREPARATION METHODS AND USES THEREOF” (InventisBio Co., Ltd., priority 2022, published 2025)
